Data: publication PMC12649549, “Sequence Permutation Generated Lysine and Tryptophan-Rich Antimicrobial Peptides with Enhanced Therapeutic Index” (Antibiotics, 2025)
Like-named read-outs stand apart in the source and are kept apart here.

Assays:
[1] = system: A. baumannii 14B00100 (Acinetobacter sp., BCRC number 14B0100)
Protocol: (§1) The antibacterial and salt-resistant activity of the peptides was tested using Escherichia coli (ATCC 25922), Pseudomonas aeruginosa Migula (ATCC 27853), Acinetobacter sp. (BCRC number 14B0091, BCRC number 14B0097, and BCRC number 14B0100), and Staphylococcus aureus sp. strains (ATCC 25923, ATCC 33591, ATCC 33592, ATCC 33593, and ATCC 6538). All bacteria were obtained from the Food Industry Research and Development Institute (Hsinchu, Taiwan) and cultured in sterilized Müller-Hinton (MH) broth at 37 °C and 200 rpm for 8 h. The inoculum concentrations were determined by measuring the optical density at 600 nm (OD 600 = 1, approximately 10^8 CFU/mL) using an Ultrospec 2100 pro UV-Visible spectrophotometer (Biochrom Ltd., Cambridge, UK) after 8 h of culture.
(§2) The antibacterial activities of the peptides in Müller-Hinton (MH) broth and modified LYM broth were determined using the standard broth microdilution method as per Clinical and Laboratory Standards Institute (CLSI) guidelines. The LYM broth was prepared with specific components and adjusted to different conditions, including varying concentrations of NaCl and MgCl2, and different pH levels. To prepare the LYM broth, 5.4 mM KCl, 5.6 mM Na2HPO4, 0.5 mM MgSO4, and 1.0 mM sodium citrate were added. Additionally, 0.4 mg of ZnCl2, 2.0 mg of FeCl3·6H2O, 0.1 mg of CuSO4·5H2O, 0.1 mg of MnSO4·H2O, 0.1 mg of Na2B4O7∙10H2O, 700 mg of amino acid mixtures without tryptophan (Takara Bio Inc., San Jose, CA, USA), and 20 mg of L-tryptophan were added per liter of medium. The pH was adjusted to 7.4, and a vitamin mixture (100X, Sigma) and glucose concentration of 2% were added. For different conditions of LYM broth, NaCl concentrations of 300, 200, 150, and 50 mM, MgCl2 concentrations of 2.5, 1.5, and 0.5 mM, and pH levels of 6.5, 5.5, and 4.5 were adjusted. Bacterial strains were incubated in MH broth overnight, regrown, and diluted to a final concentration of 5 × 10^5 CFU/mL. Peptides were added to each well at final concentrations of 50, 25, 12.5, 6.25, 3.13, 1.56, and 0.78 µg/mL, and 99 µL of diluted microbes was loaded into each well of a polypropylene 96-well plate. […] The Morpheus HeatMap software (https://software.broadinstitute.org/morpheus/) was used to display MIC values on a color scale. All experiments were independently repeated three times.

[2] = system: S. aureus ATCC 33593
Protocol: as §1, §2

[3] = system: S. aureus ATCC 33592
Protocol: as §1
as §2, with “For different conditions of LYM broth, NaCl concentrations of 300, 200, 150, and 50 mM, MgCl2 concentrations of 2.5, 1.5, and 0.5 mM, and pH levels of 6.5, 5.5, and 4.5 were adjusted.” left out

[4] = system: Gram-negative bacteria; assay: Geometric mean MIC and therapeutic index, Gram-negative bacteria; assay type: cell-based; conditions: for Therapeutic Index (TI) G−: HC10/GM
Protocol: (§3) In this study, we aimed to investigate the potential of W5K series peptides for therapeutic use. To evaluate their efficacy for antibacterial therapy, we used the Therapeutic Index (TI) as a measure of their cell selectivity. The TI was calculated as the ratio of the concentration causing 10% hemolysis of human red blood cells (HC10) to the geometric mean minimum inhibitory concentration (GM) of the peptides against both Gram-negative and Gram-positive bacteria. This parameter was used to quantitatively assess the balance between antibacterial potency and cytotoxicity among the W5K derivatives.
as §2

[5] = system: Gram-positive bacteria; assay: Geometric mean MIC and therapeutic index, Gram-positive bacteria; assay type: cell-based; conditions: for Therapeutic Index (TI) G+: HC10/GM
Protocol: as §3, §2

[6] = system: Both Gram-positive and -negative bacteria; assay: Geometric mean MIC, therapeutic index and fold changes of MIC, whole panel of strains; assay type: cell-based; conditions: for Therapeutic Index (TI) G−/+: HC10/GM, both Gram-positive and -negative bacteria; for weakening of antibacterial efficacy (MIC): LYM broth
Protocol: as §3, §2

[7] = LYM broth, 0 mM NaCl, 16 h, 37 °C
[8] = LYM broth, 50 mM NaCl, 16 h, 37 °C
[9] = LYM broth, 100 mM NaCl, 16 h, 37 °C
[10] = LYM broth, 200 mM (NaCl), 16 h, 37 °C
[11] = LYM broth, 300 mM (NaCl), 16 h, 37 °C
[12] = MH broth, 5 × 10^5 CFU/mL, 16 h, 37 °C, repeated three times

Ac-AKKKKWRKWLKWL-NH2 [Peptide W5K10]
3.13 µg/mL: MIC ([1]; LYM broth, 2.5 mM MgCl2) | MIC [1, 11] | MIC [1, 12] | MIC [2, 7] | MIC ([2]; LYM broth, 0.5 mM MgCl2) | MIC ([2]; LYM broth, 1.5 mM MgCl2) | MIC ([2]; LYM broth, pH 5.5) | MIC ([2]; LYM broth, pH 6.5) | MIC [3, 7] | MIC ([3]; LYM broth, 0.5 mM MgCl2) | MIC ([3]; LYM broth, 1.5 mM MgCl2) | MIC ([3]; LYM broth, 2.5 mM MgCl2) | MIC ([3]; LYM broth, pH 4.5) | MIC ([3]; LYM broth, pH 5.5) | MIC ([3]; LYM broth, pH 6.5)
5.4 µg/mL: GM G−/+ (geometric mean of the MIC values) ([6]; Both Gram-positive and -negative bacteria, MH broth, MIC >50 µg/mL counted as 100 µg/mL)
1.56 µg/mL: MIC [1, 7] | MIC ([1]; LYM broth, 0.5 mM MgCl2) | MIC ([1]; LYM broth, 1.5 mM MgCl2) | MIC [1, 8] | MIC [1, 9] | MIC [1, 10] | MIC ([1]; LYM broth, pH 4.5) | MIC ([1]; LYM broth, pH 5.5) | MIC ([1]; LYM broth, pH 6.5)
34.8: Therapeutic Index (TI) G− ([4]; Gram-negative bacteria)
20.0: Therapeutic Index (TI) G−/+ [6]
up to 4 fold: weakening of antibacterial efficacy (MIC) ([6]; 300 mM NaCl)
11.5: Therapeutic Index (TI) G+ ([5]; Gram-positive bacteria)
3.1 µg/mL: GM G− (geometric mean of the MIC values) ([4]; Gram-negative bacteria, MH broth, MIC >50 µg/mL counted as 100 µg/mL)
9.5 µg/mL: GM G+ (geometric mean of the MIC values) ([5]; Gram-positive bacteria, MH broth, MIC >50 µg/mL counted as 100 µg/mL)
6.25 µg/mL: MIC ([2]; LYM broth, 2.5 mM MgCl2) | MIC [2, 8] | MIC [2, 9] | MIC ([2]; LYM broth, pH 4.5) | MIC [3, 8] | MIC [3, 9]
12.5 µg/mL: MIC [2, 10] | MIC [2, 12] | MIC [3, 10] | MIC [3, 12]
25 µg/mL: MIC [2, 11] | MIC [3, 11]

Ac-KKKKWRKWLKWLA-NH2 [Peptide W5K11]
0.78 µg/mL: MIC [1, 7] | MIC [1, 8] | MIC [1, 9] | MIC [1, 10] | MIC [1, 11]
3.3 µg/mL: GM G−/+ (geometric mean of the MIC values) [6]
up to 3 fold: weakening of antibacterial efficacy (MIC) ([6]; 300 mM NaCl)
34.5: Therapeutic Index (TI) G− ([4]; Gram-negative bacteria)
3.13 µg/mL: MIC [2, 7] | MIC ([2]; LYM broth, 0.5 mM MgCl2) | MIC ([2]; LYM broth, 1.5 mM MgCl2) | MIC ([2]; LYM broth, 2.5 mM MgCl2) | MIC [2, 8] | MIC [2, 9] | MIC [2, 10] | MIC ([2]; LYM broth, pH 4.5) | MIC [3, 7] | MIC ([3]; LYM broth, 0.5 mM MgCl2) | MIC ([3]; LYM broth, 1.5 mM MgCl2) | MIC ([3]; LYM broth, 2.5 mM MgCl2) | MIC [3, 8] | MIC [3, 9] | MIC [3, 10] | MIC ([3]; LYM broth, pH 4.5) | MIC ([3]; LYM broth, pH 5.5)
13.0: Therapeutic Index (TI) G+ ([5]; Gram-positive bacteria)
6.25 µg/mL: MIC [2, 11] | MIC [2, 12] | MIC [3, 11] | MIC [3, 12]
up to 2 fold: weakening of antibacterial efficacy (MIC) ([6]; MgCl2 rising above 0.5 mM)
2.1 µg/mL: GM G− (geometric mean of the MIC values) [4]
21.2: Therapeutic Index (TI) G−/+ [6]
1.56 µg/mL: MIC ([1]; LYM broth, 0.5 mM MgCl2) | MIC ([1]; LYM broth, 1.5 mM MgCl2) | MIC ([1]; LYM broth, 2.5 mM MgCl2) | MIC ([1]; LYM broth, pH 4.5) | MIC ([1]; LYM broth, pH 5.5) | MIC ([1]; LYM broth, pH 6.5) | MIC [1, 12] | MIC ([2]; LYM broth, pH 5.5) | MIC ([2]; LYM broth, pH 6.5) | MIC ([3]; LYM broth, pH 6.5)
5.4 µg/mL: GM G+ (geometric mean of the MIC values) [5]
